Assay results: article PMC6896158, “Enzymatic Characterization of Wild-Type and Mutant Janus Kinase 1” (Cancers, 2019)
Read-outs that look alike come from different tables or passages of the source. Blank lines part the entries; values can stand above or below the molecule they belong to.

Experiments:
IFNλR (Homo sapiens) = IFNλR (Homo sapiens) (UniProt Q8IU57); conditions: cited from earlier work
JAK1 constructs = JAK1 constructs (Homo sapiens, UniProt P23458); assay: Thermal shift assay (SYPRO orange); type: binding; conditions: all constructs containing a kinase domain
Method: To determine whether the V658F mutation affects protein stability we performed thermal shift assays on all the JAK constructs in the presence and absence of various cofactors that bind the kinase domain. SYPRO orange, which fluoresces when bound to hydrophobic residues, was added to a solution of protein and ligand. Fluorescence was measured as the temperature of the solution was increased, with increased fluorescence indicating the unfolding of the protein. The melting temperature (Tm) is represented by the inflection point of the fluorescence curve, with a higher Tm indicating greater thermal stability.
JAKs of 3–5 µg were diluted into the JAK Gel Filtration Buffer with 0.04× SYPRO orange, 4% (v/v) DMSO plus either 20 mM EDTA, 1 mM ATP and 2 mM MgCl2, or 6 µM itacitinib, and with or without 5 µM receptor peptide. The temperature was raised in 1 °C per min steps from 25 °C to 80 °C and fluorescence readings at 530 nm were taken at each interval. Sigmoidal curves were fitted to the fluorescence data to provide Tm values for each experiment.

JAK1 = molecular target: T1, JAK1 (Homo sapiens, UniProt P23458); assay: Steady-state kinetics, kinase activity assay (KM for ATP and STAT5b peptide); type: biochemical; conditions: 6 mM peptide substrate, read-out: KM, app (ATP)
T1 construct: full length, 25-1154; His tag (TEV-cleavable) (N, cleaved yes); made in house; host or cells: Sf21 insect cells (baculovirus)

JAK1 V658F = JAK1 V658F (Homo sapiens, UniProt P23458, V658F); assay: Kinase assay with titration of itacitinib (γ-32P-ATP, STAT5b peptide); type: biochemical; conditions: V658F constructs (pseudokinase-kinase, full length); Ki=IC50/(1+S/KM)
Method: (§1) To our knowledge, it is unknown whether small-molecule JAK inhibitors bind the wild-type and mutant forms of the enzyme with equal affinity. Therefore, the inhibition constant (Ki) for Itacitinib was determined. JAK1 activity was measured by kinase assay in the presence of increasing concentrations of Itacitinib.
(§2) The 10 µL reaction mix contained 0.5 µL 20× Kinase Assay Buffer, 1 µCi γ-^32P-ATP and varying concentrations of ATP, STAT5b peptide, and inhibitor, as described for each experiment. Reactions were started with the addition of 5 µL JAK solution, with concentration as described for each experiment. After incubation at room temperature for 20–60 min, a 3.5 µL reaction mix was spotted onto P81 phosphocellulose paper (Dr. J. Oakhill, SVIMR. Australia) and the paper was placed into 5% (v/v) H3PO4. Paper was washed 4 × 15 min with 100 mL 5% (v/v) H3PO4, followed by 1 × 1 min with acetone. Paper was dried and exposed to a phosphorimager plate overnight. The plate was scanned using a Typhoon FLA 7000 phosphorimager (GE Life Sciences, Chicago, IL, USA) and the incorporated radioactivity of each spot was quantitated using ImageQuant TL software (GE Life Sciences). The background radioactivity, quantified from an area of the paper without reaction mix, was subtracted from that for the experimental spots. […]

[1] = molecular target: JAK1 (wild type constructs) (Homo sapiens, UniProt P23458); assay: as above; type: biochemical; conditions: all wild type constructs (kinase domain, pseudokinase-kinase, full length); Ki=IC50/(1+S/KM)
Method: as §1, §2

JAK1 wild-type and V658F = assay: Steady-state kinetics in the presence and absence of IFNλR peptide; type: biochemical, human; conditions: 2 µM IFNλR peptide
Method: Receptor-binding is an important regulator of the activity of JAK in vivo and may be required in order for the V658F mutation to induce constitutive activity. Although we cannot include full-length receptor constructs in these assays we were able to include a peptide fragment that represents the box1/2 motifs. Therefore, we performed steady-state kinetics using JAK1 wild-type and V658F in the presence and absence of saturating concentrations of the IFNλR peptide.
The 10 µL reaction mix contained 0.5 µL 20× Kinase Assay Buffer, 1 µCi γ-^32P-ATP and varying concentrations of ATP, STAT5b peptide, and inhibitor, as described for each experiment. Reactions were started with the addition of 5 µL JAK solution, with concentration as described for each experiment. After incubation at room temperature for 20–60 min, a 3.5 µL reaction mix was spotted onto P81 phosphocellulose paper (Dr. J. Oakhill, SVIMR. Australia) and the paper was placed into 5% (v/v) H3PO4. […] The plate was scanned using a Typhoon FLA 7000 phosphorimager (GE Life Sciences, Chicago, IL, USA) and the incorporated radioactivity of each spot was quantitated using ImageQuant TL software (GE Life Sciences). The background radioactivity, quantified from an area of the paper without reaction mix, was subtracted from that for the experimental spots.

JAK1 FERM-SH2 domain = molecular target: T2, JAK1 FERM-SH2 domain (Homo sapiens, UniProt P23458); assay: Isothermal titration calorimetry of IFNλR Box1/Box2 peptide binding; conditions: peptide of IFNλR Box1 and Box2 motifs (human residues K250 - T299)
T2 construct: FERM-SH2 domains, 25-559; His tag (TEV-cleavable) (N, cleaved yes); made in house; host or cells: Sf21 insect cells (baculovirus)
From the text: We considered the possibility that the pseudokinase and kinase domains of JAK may affect the binding of JAK to the cytokine receptor (either directly or allosterically), as well as the possibility that the V658F mutation might exert its oncogenic effect by influencing the interaction of JAK with receptor. […] We performed isothermal titration calorimetry (ITC) to determine the affinity of a peptide representing the IFNλR Box1 and Box2 motifs (human residues K250 - T299). […] However, there was no significant effect on receptor binding between the wild-type and mutant forms of the enzyme.

[2] = molecular target: T3, full length JAK1 V658F (ΔN25) (human, UniProt P23458 25-1154, V658F); assay: ITC; IFNλR Box1/Box2 peptide binding to purified JAK1 constructs; three independent experiments; conditions not described in the methods; conditions: both partners purified
T3 construct: human JAK1, the 'full length' construct, residues 25-1154, with the cancer-linked mutation V658F in the pseudokinase domain; also called FL V658F; JAK1 FL V658F; source: Sf21 insect cells, baculovirus, purified (HisTrap, TEV cleavage, Superdex 200); not shown: His tag, N-terminal, cleaved

JAK1 FERM-SH2 domains = molecular target: T4, JAK1 FERM-SH2 domains (human, UniProt P23458 25-559); assay: as above; conditions: both partners purified
T4 construct: human JAK1 FERM-SH2 domains, residues 25-559; source: Sf21 insect cells, baculovirus, purified (HisTrap, TEV cleavage, Superdex 200); not shown: His tag, N-terminal, cleaved

[3] = molecular target: T5, full length wild type JAK1 (ΔN25) (human, UniProt P23458 25-1154); assay: as above; conditions: both partners purified
T5 construct: human JAK1, the 'full length' construct, residues 25-1154 (the N-terminal residues deleted for expression); The results say the 25 N-terminal residues were deleted, the methods give 25-1154; also called FL WT; JAK1 FL WT; source: Sf21 insect cells, baculovirus, purified (HisTrap, TEV cleavage, Superdex 200); not shown: His tag, N-terminal, cleaved
T5 sequence (P23458 25-1154, stated change not applied): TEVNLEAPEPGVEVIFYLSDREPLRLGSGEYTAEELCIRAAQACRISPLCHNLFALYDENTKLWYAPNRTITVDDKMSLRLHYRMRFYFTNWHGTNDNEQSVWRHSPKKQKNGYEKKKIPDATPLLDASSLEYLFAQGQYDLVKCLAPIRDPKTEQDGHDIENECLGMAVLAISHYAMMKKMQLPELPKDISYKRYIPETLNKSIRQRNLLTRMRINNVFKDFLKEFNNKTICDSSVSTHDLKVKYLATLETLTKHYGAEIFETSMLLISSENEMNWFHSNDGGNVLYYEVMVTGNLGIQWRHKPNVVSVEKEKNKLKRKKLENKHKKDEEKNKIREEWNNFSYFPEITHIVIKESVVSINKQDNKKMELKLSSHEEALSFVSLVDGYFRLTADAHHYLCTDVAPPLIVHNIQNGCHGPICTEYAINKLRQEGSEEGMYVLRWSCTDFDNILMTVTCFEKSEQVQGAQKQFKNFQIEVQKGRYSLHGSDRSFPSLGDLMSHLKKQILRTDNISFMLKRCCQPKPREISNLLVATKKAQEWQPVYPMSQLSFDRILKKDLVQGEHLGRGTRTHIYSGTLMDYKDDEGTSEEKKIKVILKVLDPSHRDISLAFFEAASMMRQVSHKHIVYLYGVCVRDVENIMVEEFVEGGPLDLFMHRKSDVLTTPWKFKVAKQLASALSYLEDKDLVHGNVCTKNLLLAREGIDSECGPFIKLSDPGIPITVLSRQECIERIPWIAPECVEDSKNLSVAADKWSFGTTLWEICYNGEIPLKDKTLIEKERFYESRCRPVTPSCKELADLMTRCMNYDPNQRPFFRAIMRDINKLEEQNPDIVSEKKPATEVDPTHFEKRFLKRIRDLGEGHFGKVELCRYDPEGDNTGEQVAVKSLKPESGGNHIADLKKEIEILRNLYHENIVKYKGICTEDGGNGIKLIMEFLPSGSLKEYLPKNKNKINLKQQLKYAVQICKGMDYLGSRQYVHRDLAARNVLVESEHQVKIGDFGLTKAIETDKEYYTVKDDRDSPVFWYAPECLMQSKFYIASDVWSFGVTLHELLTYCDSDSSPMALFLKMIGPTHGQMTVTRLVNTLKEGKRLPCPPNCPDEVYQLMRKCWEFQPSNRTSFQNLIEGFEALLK

JAK1 constructs, sequence (P23458 862-1154 limits assumed): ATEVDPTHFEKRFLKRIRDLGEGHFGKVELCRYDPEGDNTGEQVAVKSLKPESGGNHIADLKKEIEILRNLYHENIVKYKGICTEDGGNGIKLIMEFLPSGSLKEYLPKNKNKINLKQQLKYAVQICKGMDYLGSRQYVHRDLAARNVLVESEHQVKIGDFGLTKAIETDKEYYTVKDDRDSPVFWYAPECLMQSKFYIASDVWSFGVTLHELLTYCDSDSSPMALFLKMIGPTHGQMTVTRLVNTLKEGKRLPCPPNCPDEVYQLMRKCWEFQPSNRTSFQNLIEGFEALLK
IFNλR (Homo sapiens), sequence (Q8IU57 21-520): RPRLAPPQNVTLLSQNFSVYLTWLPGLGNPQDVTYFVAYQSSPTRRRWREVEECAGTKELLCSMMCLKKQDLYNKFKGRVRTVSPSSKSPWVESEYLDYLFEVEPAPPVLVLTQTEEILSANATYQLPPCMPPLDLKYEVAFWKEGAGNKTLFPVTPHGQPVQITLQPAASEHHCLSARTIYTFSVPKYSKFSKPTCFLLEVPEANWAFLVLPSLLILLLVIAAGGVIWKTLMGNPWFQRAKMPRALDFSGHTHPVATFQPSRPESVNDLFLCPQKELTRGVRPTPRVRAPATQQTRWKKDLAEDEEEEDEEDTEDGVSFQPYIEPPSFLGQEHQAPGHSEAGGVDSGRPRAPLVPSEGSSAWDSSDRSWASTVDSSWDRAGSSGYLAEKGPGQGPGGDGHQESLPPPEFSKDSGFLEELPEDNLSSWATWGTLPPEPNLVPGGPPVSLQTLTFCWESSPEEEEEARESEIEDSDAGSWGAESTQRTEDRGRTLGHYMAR
JAK1 wild-type and V658F, sequence (P23458 25-559 limits assumed, stated change not applied): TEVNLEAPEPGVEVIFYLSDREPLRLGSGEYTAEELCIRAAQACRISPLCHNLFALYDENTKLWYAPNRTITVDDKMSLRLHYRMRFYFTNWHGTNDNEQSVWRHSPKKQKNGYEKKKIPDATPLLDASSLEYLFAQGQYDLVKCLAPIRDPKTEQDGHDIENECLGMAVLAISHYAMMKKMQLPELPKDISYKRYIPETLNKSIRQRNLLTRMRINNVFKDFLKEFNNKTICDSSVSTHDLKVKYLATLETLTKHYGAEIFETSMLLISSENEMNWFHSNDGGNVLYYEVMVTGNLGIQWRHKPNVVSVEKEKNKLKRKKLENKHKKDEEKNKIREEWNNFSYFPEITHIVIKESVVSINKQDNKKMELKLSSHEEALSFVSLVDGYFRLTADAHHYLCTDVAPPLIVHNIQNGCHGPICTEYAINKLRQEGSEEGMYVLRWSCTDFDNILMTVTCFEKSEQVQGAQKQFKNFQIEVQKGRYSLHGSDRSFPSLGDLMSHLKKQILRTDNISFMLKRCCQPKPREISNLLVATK
T4 sequence (P23458 25-559): as the sequence (P23458 25-559 limits assumed, stated change not applied) above
T2 sequence (P23458 25-559): as the sequence (P23458 25-559 limits assumed, stated change not applied) above
JAK1 (wild type constructs), sequence (P23458 862-1154 limits assumed): as the sequence (P23458 862-1154 limits assumed) above
JAK1 V658F, sequence (P23458 25-1154 V658F): as the sequence (P23458 25-1154, stated change not applied) above, with V634F counted along it
T3 sequence (P23458 25-1154 V658F): as the sequence (P23458 25-1154, stated change not applied) above, with V634F counted along it

Molecule: JAK1 FERM-SH2 (from UniProt P23458)
- Kd (IFNλR (Homo sapiens)): 71 nM

Molecule: Nc1ncnc2c1ncn2[C@@H]1O[C@H](COP(=O)(O)OP(=O)(O)OP(=O)(O)O)[C@@H](O)[C@H]1O [ATP]
- Tm change (JAK1 constructs; 1 mM ATP and 2 mM MgCl2, compared to EDTA): increased Tm
- Km (JAK1; full-length enzyme): 25 µM
- Km (JAK1; kinase domain alone): 175 µM

Molecule: N#CCC1(n2cc(-c3ncnc4[nH]ccc34)cn2)CN(C2CCN(C(=O)c3ccnc(C(F)(F)F)c3F)CC2)C1 [itacitinib]
- Ki (JAK1 V658F): 0.5 to 2 nM
- Ki [1]: 0.5 to 2 nM
- Tm change (JAK1 constructs; 6 µM itacitinib, compared to ATP/Mg2+): further Tm increase

- effect on ATP KM or turnover rate (JAK1 wild-type and V658F): no significant differences
Molecule: IFNλR peptide: peptide representing the IFNλR Box1 and Box2 motifs (human residues K250 - T299) (KTLMGNPWFQRAKMPRALDFSGHTHPVATFQPSRPESVNDLFLCPQKELT)
- affinity (ITC) (JAK1 FERM-SH2 domain): near-identical affinity to that previously reported

- binding result [2]: binds
- binding result (JAK1 FERM-SH2 domains): binds
- binding result [3]: binds
B1: peptide representing the IFNλR Box1 and Box2 motifs (human residues K250 - T299) (peptide, UniProt Q8IU57 250-299, looked up)
peptide: KTLMGNPWFQRAKMPRALDFSGHTHPVATFQPSRPESVNDLFLCPQKELT
notes: human interferon-lambda receptor (IFNλR), intracellular Box1 and Box2 motifs, residues K250-T299; also called IFNλR peptide; interferon lambda box1-box2 peptide
